Details: 283.15 K, Liquid, Vibrating tube method

CCCCCCCC(=O)OCC(COC(=O)CCCCCCC)(COC(=O)CCCCCCC)COC(=O)CCCCCCC [pentaerythritol tetraoctanoate]
Details	mass density [kg/m3]
7440.8 kPa	974.4
7459 kPa	974.5
7477.1 kPa	974.5
7498.5 kPa	974.5
7516.3 kPa	974.6
7534.1 kPa	974.5
7555.6 kPa	974.6
7574.3 kPa	974.6
7592.6 kPa	974.6
7614.9 kPa	974.6
7633.7 kPa	974.6
7652.5 kPa	974.6
7671.5 kPa	974.7
7693.9 kPa	974.6
7713.6 kPa	974.7
7732.4 kPa	974.7
7751.9 kPa	974.7
7774.9 kPa	974.8
7794.2 kPa	974.7
7813.7 kPa	974.8
7837.5 kPa	974.7
7857 kPa	974.8
7877.2 kPa	974.8
7897.6 kPa	974.8
7917.4 kPa	974.8
7942.4 kPa	974.8
7963.7 kPa	974.8
7984.1 kPa	974.8
8005.2 kPa	974.9
8025.4 kPa	974.9
8049.7 kPa	974.8
8070.2 kPa	974.9
8092.5 kPa	975.1
8117.1 kPa	974.9
8138 kPa	974.8
8159.8 kPa	974.9
8184.3 kPa	974.9
8205.1 kPa	975
8227.9 kPa	974.9
8252.3 kPa	975
8274.2 kPa	975
8300.2 kPa	975.1
8322.1 kPa	975.1
8344.2 kPa	975.1
8367 kPa	975.1
8393.5 kPa	975
8415.8 kPa	975.1
8438.6 kPa	975
8465.5 kPa	975.1
8487.9 kPa	975.1
8516.4 kPa	975.2
8539.8 kPa	975.1
8563.6 kPa	975.1
8586.9 kPa	975.2
8615 kPa	975.2
8638.6 kPa	975.2
8666.6 kPa	975.3
8690.7 kPa	975.3
8714.3 kPa	975.1
8744.3 kPa	975.2
8768.6 kPa	975.3
8793.6 kPa	975.4
8822.8 kPa	975.4
8847.1 kPa	975.3
8872.8 kPa	975.3
8898.8 kPa	975.4
8929.2 kPa	975.3
8953.6 kPa	975.4
8985 kPa	975.4
9011.4 kPa	975.4
9037.2 kPa	975.4
9063.1 kPa	975.5
9095 kPa	975.3
9120.9 kPa	975.4
9152 kPa	975.5
9179.6 kPa	975.5
9206.9 kPa	975.5
9238.7 kPa	975.5
9266.5 kPa	975.5
9295.1 kPa	975.6
9323 kPa	975.5
9356.5 kPa	975.6
9383.9 kPa	975.2
9416.6 kPa	975.6
9445.6 kPa	975.6
9474.8 kPa	975.6
9509.1 kPa	975.6
9537.9 kPa	975.7
9567.4 kPa	975.8
9602.7 kPa	975.7
9633 kPa	975.8
9662.7 kPa	975.7
9692.8 kPa	975.8
9730.2 kPa	975.8
9760.9 kPa	975.8
9797 kPa	975.9
9827.4 kPa	975.9
9859.1 kPa	975.8
9890.1 kPa	975.9
9927.8 kPa	975.9
9959.5 kPa	976
9991.2 kPa	976
10030 kPa	975.8
10063 kPa	975.9
10103 kPa	976
10135 kPa	975.9
10169 kPa	976
10203 kPa	976.1
10243 kPa	976.1
10276 kPa	976
10311 kPa	976.1
10352 kPa	976
10387 kPa	976.1
10421 kPa	976.1
10464 kPa	976.2
10500 kPa	976.2
10539 kPa	976.3
10575 kPa	976.4
10612 kPa	976.3
10655 kPa	976.1
10692 kPa	976.4
10736 kPa	976.3
10773 kPa	976.4
10813 kPa	976.3
10851 kPa	976.4
10890 kPa	976.5
10936 kPa	976.5
10974 kPa	976.5
11022 kPa	976.5
11063 kPa	976.4
11103 kPa	976.5
11143 kPa	976.6
11183 kPa	976.6
11232 kPa	976.8
11272 kPa	976.6
11322 kPa	976.6
11363 kPa	976.6
11404 kPa	976.6
11456 kPa	976.9
11499 kPa	976.7
11542 kPa	976.8
11594 kPa	976.8
11639 kPa	976.8
11683 kPa	976.8
11736 kPa	976.9
11780 kPa	976.8
11826 kPa	977
11881 kPa	976.9
11928 kPa	976.9
11974 kPa	977.1
12022 kPa	977
12078 kPa	977
12126 kPa	977.1
12174 kPa	977.1
12234 kPa	977.1
12283 kPa	977.2
12334 kPa	977.2
12394 kPa	977.1
12445 kPa	977.3
12496 kPa	977.2
12548 kPa	977.3
12611 kPa	977.3
12662 kPa	977.3
12708 kPa	977.5
12785 kPa	977.5
12834 kPa	977.5
12903 kPa	977.4
12955 kPa	977.6
12988 kPa	977.5
13021 kPa	977.6
13054 kPa	977.6
13095 kPa	977.6
13128 kPa	977.6
13170 kPa	977.5
13204 kPa	977.8
13238 kPa	977.7
13272 kPa	977.7
13314 kPa	977.8
13350 kPa	977.7
13385 kPa	977.8
13427 kPa	977.8
13463 kPa	977.8
13506 kPa	977.9
13542 kPa	977.9
13579 kPa	977.9
13615 kPa	978
13660 kPa	977.9
13697 kPa	977.8
13734 kPa	977.9
13779 kPa	978
13816 kPa	978.1
13863 kPa	978
13902 kPa	978
13942 kPa	978.1
13982 kPa	978.1
14031 kPa	978.1
14074 kPa	978.2
14118 kPa	978.2
14166 kPa	978.1
14190 kPa	978.3
14210 kPa	978.2
14230 kPa	978.3
14254 kPa	978.2
14274 kPa	978.3
14298 kPa	978.3
14319 kPa	978.3
14340 kPa	978.4
14360 kPa	978.3
14384 kPa	978.3
14405 kPa	978.4
14426 kPa	978.4
14446 kPa	978.4
14472 kPa	978.2
14492 kPa	978.3
14514 kPa	978.3
14539 kPa	978.5
14560 kPa	978.4
14582 kPa	978.4
14608 kPa	978.5
14625 kPa	978.5
14650 kPa	978.4
14671 kPa	978.4
14693 kPa	978.6
14718 kPa	978.4
14740 kPa	978.5
14765 kPa	978.6
14787 kPa	978.6
14809 kPa	978.6
14835 kPa	978.4
14857 kPa	978.6
14879 kPa	978.7
14906 kPa	978.6
14928 kPa	978.7
14950 kPa	978.5
14976 kPa	978.6
14999 kPa	978.6
15022 kPa	978.7
15044 kPa	978.7
15071 kPa	978.7
15093 kPa	978.7
15116 kPa	978.5
15143 kPa	978.8
15166 kPa	978.7
15189 kPa	978.8
15217 kPa	978.7
15240 kPa	978.8
15263 kPa	978.6
15291 kPa	978.9
15314 kPa	978.8
15338 kPa	978.9
15366 kPa	978.7
15389 kPa	978.8
15417 kPa	978.9
15441 kPa	978.9
15465 kPa	978.9
15488 kPa	978.9
15517 kPa	979
15542 kPa	978.9
15566 kPa	978.9
15595 kPa	978.9
15620 kPa	978.9
15644 kPa	979
15673 kPa	979
15698 kPa	979
15722 kPa	979
15752 kPa	979.1
15776 kPa	979.1
15801 kPa	979.2
15831 kPa	979
15856 kPa	979.1
15882 kPa	979.1
15912 kPa	979.2
15938 kPa	979.2
15963 kPa	979.1
15994 kPa	979.2
16019 kPa	979.2
16045 kPa	979.1
16076 kPa	979.2
16102 kPa	979.2
16128 kPa	979.4
16159 kPa	979.2
16185 kPa	979.2
16212 kPa	979.2
16238 kPa	979.4
16270 kPa	979.3
16296 kPa	979.4
16328 kPa	979.4
16355 kPa	979.5
16382 kPa	979.5
16409 kPa	979.4
16441 kPa	979.5
16468 kPa	979.5
16501 kPa	979.4
16528 kPa	979.5
16556 kPa	979.4
16591 kPa	979.4
